From US8076321B2, “Compositions for treatment of systemic mastocytosis” (priority 2005, dated 2011)
Values after ≈ are worked out from the molar mass of the structure shown. Values joined by “and” are separate entries in the source; they are usually repeats but may differ in a detail not shown here. Identical values can stand only once. “Also recorded” adds a separate entry of the source. Like-named read-outs stand apart in the source and are kept apart here.

Tests used:
HMC-1.1 cells [1] = assay: cells; settings: Homo sapiens, read-out: IC50, 3H-thymidine uptake in HMC-1.1 cells
HMC-1.2 cells [2] = assay: cells; settings: Homo sapiens, read-out: IC50, 3H-thymidine uptake in HMC-1.2 cells
[3] = biological target: T1, wt KIT (Ton.Kit.wt Ba/F3 cells) (Homo sapiens, UniProt P10721); assay: KIT phosphorylation by immunoprecipitation and Western blotting in Ton.Kit.wt cells; assay type: cell-based; settings: 1 μM, 4 hours; doxycycline, SCF 100 ng/ml
T1 construct: expressed in transfected cells
Experimental: (§1) In case of Ton.Kit.wt cells, KIT phosphorylation is induced by adding rhSCF (100 ng/ml). Immunoprecipitation (IP) and Western blotting are performed as described previously.^32 In brief, cells are washed at 4° C. and resuspended in RIPA buffer (1 ml buffer per 10^8 cells) consisting of 50 mM Tris, 150 mM sodium chloride (NaCl), 1% nonidet P40 (NP-40), 0.25% deoxycholic acid, 0.1% sodium dodecyl sulfate (SDS), 1 mM ethylene-diamine-tetraacetic acid (EDTA), 1 mM sodium fluoride (NaF), 1 mM phenylmethylsulfonyl fluoride (PMSF) and 1 mM sodium orthovanadate (Na3VO4). After incubation in RIPA buffer supplemented with proteinase inhibitor cocktail (Roche) for 30 minutes at 4° C. (vortexed vigorously every 5 minutes), lysates are centrifuged to remove insoluble particles. For IP, lysates from 1×10^7 cells are incubated with anti-KIT antibody SR1^37 (kindly provided by Dr. V. Broudy, University of Washington, Seattle, Wash.) or with the anti-KIT antibody 1C1^38 (kindly provided by Dr. H.-J. Bühring, University of Tübingen, Germany) and protein G Sepharose beads (Amersham) in IP-buffer (50 mM Tris-Cl, pH 7.4, 150 mM NaCl, 100 mM NaF, and 1% NP40) at 4° C. overnight. Then, beads are washed 3 times in IP buffer. […] Membranes are blocked for 1 hour in 5% blocking reagent (Roche) and are then incubated with anti-KIT antibody 1C1 or with the monoclonal antibody 4G10 (Upstate Biotechnology, Lake Placid, N.Y.) directed against tyrosine-phosphorylated proteins, at 4° C. overnight. Antibody reactivity is made visible by sheep anti-mouse IgG antibody and Lumingen PS-3 detection reagent (both from Amersham), and a CL-Xposure film (Pierce Biotechnology, Rockford, Ill.).
(§2) In case of Ton.Kit.wt cells, KIT phosphorylation was induced by adding rhSCF (100 ng/ml). […]

HMC-1.2 cells [4] = assay: Cell surface antigen expression on HMC-1.2 cells by flow cytometry; assay type: cell-based, human; settings: 24 hours
Experimental: After incubation with drugs, HMC-1 cells are washed and subjected to single color flow cytometry using PE-conjugated antibodies against MC antigens known to be overexpressed on neoplastic MC in SM (compared to normal MC) and/or are expressed at an early stage of mastopoiesis (CD2, CD13, CD63, CD117, CD164, CD203c).^45-47 Flow cytometry is performed on a FACSan (Becton Dickinson) as described previously.^29
Flow cytometry was performed on a FACScan (Becton Dickinson) as described.^30,37,51

HMC-1.1 cells [5] = test system: HMC-1.1 cells
HMC-1.1 cells [6] = assay: Apoptosis in HMC-1.1 cells (light and electron microscopy, Tunel); settings: 24 hours; for apoptosis in HMC-1.1 cells by Tunel assay: 1 μM; for apoptosis in HMC-1.1 cells by light microscopy: various concentrations
[7] = test system: non-transfected Ba/F3 cells; settings: not shown
HMC-1.2 cells [8] = assay: Apoptosis in HMC-1.2 cells (light and electron microscopy, annexin V/PI, Tunel); assay type: cell-based, human; settings: 24 hours; for apoptosis in HMC-1.2 cells by light microscopy: various concentrations
HMC-1.2 cells [9] = test system: HMC-1.2 cells
[10] = biological target: T2, KIT V560G (HMC-1.1 cells) (Homo sapiens, UniProt P10721, V560G); assay: KIT phosphorylation by immunoprecipitation and Western blotting in HMC-1.1 cells; assay type: cell-based; settings: 1 μM, 4 hours
T2 construct: endogenous in cells; host or cells: HMC-1.1 (subclone of the human mast cell leukemia line HMC-1)
Experimental: as §1, §2

[11] = test system: Ton.Kit.wt cells (Ba/F3 with inducible wt KIT); assay: cells; settings: Mus musculus, BaF3, 48 h, read-out: IC50, SCF-dependent growth of doxycycline-exposed Ton.Kit.wt cells
[12] = Human trials, Maximum Tolerated Dose; assay type: in vivo
HMC-1.2 cells [13] = assay: Apoptosis in HMC-1.2 cells (light and electron microscopy, annexin V/PI, Tunel); assay type: cell-based, human; settings: 1 μM, 24 hours
Experimental: For flow cytometric determination of apoptosis and cell viability, combined annexin V/propidium iodide staining is performed. […] Thereafter, cells are washed in PBS and then are incubated with annexinV-APC (Alexis Biochemicals, Lausen, Switzerland) in binding buffer containing HEPES (10 mM, pH 7.4), NaCl (140 mM), and CaCl2 (2.5 mM). Thereafter, propidium iodide (1 μg/ml) is added. Cells are then washed and analyzed by flow cytometry on a FACSCalibur (Becton Dickinson).

normal bm cells = assay: 3H-thymidine uptake in normal bone marrow cells (control); assay type: cell-based, human; settings: control sample, not shown
Experimental: Both patients gave informed consent before bm puncture. The bm aspirate is obtained from the posterior iliac crest and collected in syringes containing preservative-free heparin. Cells are layered over Ficoll to isolate mononuclear cells (MNC).
In select experiments, HMC-1 cells (both subclones) are incubated with various concentrations of IFNα (0.1-500,000 U/ml) or 2CdA (0.005-10 μg/ml).
The bm aspirate samples were collected in syringes containing preservative-free heparin. Cells were layered over Ficoll to isolate mononuclear cells (MNC). […] Both patients gave written informed consent before bm puncture or blood donation. The study was approved by the local institutional review board and was conducted in accordance with the declaration of Helsinki.
Filters were air-dried, and the bound radioactivity was counted in a β-counter (Top-Count NXT, Packard Bioscience). […] All experiments were performed in triplicates.

[14] = 1 μM, dasatinib various concentrations
[15] = PKC412 1 μM, dasatinib various concentrations

T1 sequence (P10721 26-976): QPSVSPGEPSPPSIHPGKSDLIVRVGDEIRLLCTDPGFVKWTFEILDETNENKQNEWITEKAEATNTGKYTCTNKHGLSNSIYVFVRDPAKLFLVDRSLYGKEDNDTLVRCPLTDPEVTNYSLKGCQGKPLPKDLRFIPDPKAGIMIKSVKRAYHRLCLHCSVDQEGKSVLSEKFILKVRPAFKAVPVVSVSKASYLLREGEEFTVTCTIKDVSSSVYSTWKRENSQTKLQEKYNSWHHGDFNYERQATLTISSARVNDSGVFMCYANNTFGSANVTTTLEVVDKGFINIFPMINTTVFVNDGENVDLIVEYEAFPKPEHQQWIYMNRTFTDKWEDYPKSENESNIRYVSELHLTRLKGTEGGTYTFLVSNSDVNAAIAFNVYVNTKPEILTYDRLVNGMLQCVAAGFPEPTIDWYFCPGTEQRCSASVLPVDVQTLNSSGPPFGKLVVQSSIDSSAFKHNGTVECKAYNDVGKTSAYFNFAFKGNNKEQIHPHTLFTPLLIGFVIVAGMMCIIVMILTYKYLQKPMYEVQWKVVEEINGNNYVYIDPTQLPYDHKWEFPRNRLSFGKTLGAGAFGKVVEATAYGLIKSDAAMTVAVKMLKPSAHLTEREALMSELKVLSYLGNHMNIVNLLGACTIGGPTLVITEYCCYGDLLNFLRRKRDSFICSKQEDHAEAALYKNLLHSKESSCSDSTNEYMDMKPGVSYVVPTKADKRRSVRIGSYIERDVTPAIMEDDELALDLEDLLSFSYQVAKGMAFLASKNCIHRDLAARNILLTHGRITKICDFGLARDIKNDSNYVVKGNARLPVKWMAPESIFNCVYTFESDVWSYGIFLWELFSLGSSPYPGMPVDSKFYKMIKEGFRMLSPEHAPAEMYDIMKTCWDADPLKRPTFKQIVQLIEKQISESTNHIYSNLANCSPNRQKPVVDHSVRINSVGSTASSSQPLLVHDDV
T2 sequence (P10721 26-976 V560G): as the sequence (P10721 26-976) above, with V535G counted along it

Row | SMILES | SCF-induced phosphorylation of KIT in Ton.Kit.wt cells [3] | expression of CD antigens on HMC-1.2 cells (HMC-1.2 cells [4]; 1 μM) | expression of KIT (CD117) on HMC-1.2 cells (HMC-1.2 cells [4]; [14]) | IC50 (HMC-1.1 cells [5]) | apoptosis in HMC-1.1 cells by Tunel assay (HMC-1.1 cells [6]) | apoptosis in HMC-1.1 cells by light microscopy (HMC-1.1 cells [6]) | apoptosis in HMC-1.2 cells by light microscopy (HMC-1.2 cells [8]) | IC50 (HMC-1.2 cells [9]) | KIT phosphorylation in HMC-1.1 cells [10] | IC50 [11] | apoptosis in HMC-1.2 cells by annexinV/propidium iodide flow cytometry and Tunel assay (HMC-1.2 cells [13]) | further results
1 | Nc1nc(Cl)nc2c1ncn2[C@H]1C[C@H](O)[C@@H](CO)O1 [2CdA, 2-chlorodeoxyadenosine] |  |  |  |  |  |  |  |  |  |  |  | IC50 (HMC-1.1 cells [1]): 0.1 to 0.3 µg/mL (≈ 0.35 to 1.05 µM); IC50 (HMC-1.2 cells [2]): 0.01 to 0.02 µg/mL (≈ 0.035 to 0.07 µM)
2 | Cc1cn(-c2cc(NC(=O)c3ccc(C)c(Nc4nccc(-c5cccnc5)n4)c3)cc(C(F)(F)F)c2)cn1 [AMN107, 4-Methyl-3-[[4-(3-pyridinyl)-2-pyrimidinyl]amino]-N-[5-(4-methyl-1H-imidazol-1-yl)-3-(trifluoromethyl)phenyl]benzamide] | decreased the SCF-induced phosphorylation of KIT | no significant effects | slight decrease | 0.003 to 0.01 µM and 0.005 to 0.01 µM | potent apoptosis-inducing effects only in HMC-1.1 cells | induce apoptosis in both HMC-1 subclones in a dose-dependent manner | induce apoptosis in both HMC-1 subclones in a dose-dependent manner | 1 to 5 µM | strongly reduced KIT phosphorylation | 0.03 to 0.3 µM |  | growth-inhibitory effect on control (non-transfected) Ba/F3 cells [7]: neither doxycycline (1 μg/ml), nor the TK inhibitors (imatinib, PKC412, AMN107), showed growth-inhibitory effects
3 | CO[C@@H]1[C@H](N(C)C(=O)c2ccccc2)C[C@H]2O[C@]1(C)n1c3ccccc3c3c4c(c5c6ccccc6n2c5c31)C(=O)NC4 [PKC412, N-[(9S,10R,11R,13R)-2,3,10,11,12,13-hexahydro-10-methoxy-9-methyl-1-oxo-9,13-epoxy-1H,9H-diindolo[1,2,3-gh:3′,2′,1′-1m]pyrrolo[3,4-j][1,7]benzodiazonin-11-yl]-N-methylbenzamide] | decreased the SCF-induced phosphorylation of KIT |  | slight decrease |  | also induced apoptosis in both cell lines; also recorded: produced apoptosis in most HMC-1.1 and HMC-1.2 cells | induce apoptosis in both HMC-1 subclones in a dose-dependent manner; also recorded: also found to induce apoptosis in both HMC-1 subclones | induce apoptosis in both HMC-1 subclones in a dose-dependent manner; also recorded: also found to induce apoptosis in both HMC-1 subclones |  | decreased phosphorylation of KIT |  | induce apoptosis in HMC-1.2; also recorded: also induced apoptosis in both cell lines; also recorded: produced apoptosis in most HMC-1.1 and HMC-1.2 cells | expression of CD203c on HMC-1.2 cells (HMC-1.2 cells [4]; 1 μM): no significant effects; expression of CD63 on HMC-1.2 cells (HMC-1.2 cells [4]; PKC412 1 μM or various, dasatinib various concentrations): significant decrease; also recorded: dose-dependently decreased expression of CD63; expression of CD2 on HMC-1.2 cells (HMC-1.2 cells [4]; [15]): significant decrease; expression of CD13 on HMC-1.2 cells (HMC-1.2 cells [4]; [15]): no significant effects; expression of CD164 on HMC-1.2 cells (HMC-1.2 cells [4]; [15]): significant decrease; Maximum Tolerated Dose (MTD), total dose [12]: 225 mg/day; apoptosis in HMC-1.2 cells by electron microscopy (HMC-1.2 cells [8]; 1 μM): produce apoptosis in HMC-1.2 cells; effect on 3H-thymidine uptake in normal bm cells (normal bm cells): showed no effect; also recorded: no effects
4 | Cc1nc(Nc2ncc(C(=O)Nc3c(C)cccc3Cl)s2)cc(N2CCN(CCO)CC2)n1 [dasatinib, reference compound] |  |  |  |  |  |  |  | 0.2 to 0.5 µM |  | 0.001 to 0.01 µM |  | 
5 | Cc1ccc(NC(=O)c2ccc(CN3CCN(C)CC3)cc2)cc1Nc1nccc(-c2cccnc2)n1 [imatinib, reference compound] | decreased the SCF-induced phosphorylation of KIT | no significant effects | slight decrease | 0.01 to 0.03 µM | induced apoptosis only in HMC-1.1 cells; also recorded: potent apoptosis-inducing effects only in HMC-1.1 cells | produce apoptosis in HMC-1.1 cells | showed no effects on HMC-1.2 cells |  | reduced KIT phosphorylation |  | showed no effects on HMC-1.2 cells | antiproliferative effect on HMC-1.2 cells (HMC-1.2 cells [9]; 48 hours): no significant antiproliferative effects
